Test results taken from PubChem BioAssay AID743372 (Vanderbilt Specialized Chemistry Center, 2014).

Molecular target: D(4) dopamine receptor (Homo sapiens) (UniProt P21917)
Test: antagonism of human DRD4 receptor – cell-based, confirmation (AID 743372)
Conditions: cells expressing human D4 receptor, antagonist mode

Compound	IC50
FC(F)(F)Oc1cccc(CN2CCOC(CCc3ccccc3)C2)c1 (stereo unspecified)	390 nM
Fc1cccc(F)c1CN1CCOC(CCc2ccccc2)C1 (stereo unspecified)	3880 nM
Fc1ccc(CN2CCOC(CCc3ccccc3)C2)cc1 (stereo unspecified)	1140 nM
c1ccc(CCC2CN(Cc3ccccc3)CCO2)cc1 (stereo unspecified)	1480 nM
Cc1ccccc1CN1CCOC(CCc2ccccc2)C1 (stereo unspecified)	3680 nM

Stronger by IC50, values ahead:

IC50	Compound
290 nM	Clc1ccc(CN2CCOC(CCc3ccccc3)C2)cc1 (stereo unspecified)
230 nM	FC(F)(F)Oc1ccc(CN2CCO[C@H](CCc3ccccc3)C2)cc1
170 nM	COc1ccc(CN2CCOC(CCc3ccccc3)C2)cc1 (stereo unspecified)
160 nM	FC(F)(F)Oc1ccc(CN2CCOC(CCc3ccccc3)C2)cc1 (stereo unspecified)
130 nM	Clc1ccc(CN2CCO[C@H](CCc3ccccc3)C2)cc1
100 nM	COc1ccc(CN2CCO[C@@H](CCc3ccccc3)C2)cc1
